Experimental data published in patent publication US20100135905A1, “ASSESSMENT OF CANCER SUSCEPTIBILITY TO MOLECULAR TARGETED THERAPY BY USE OF RECOMBINANT PEPTIDES” (priority 2004, published 2010).
No end group written: not given here.

Columns and labels:
[1] = test system: tumor vascular endothelium; conditions: Geng et al., 2001; Lu et al., 2004; cited from earlier work
[2] = test system: LLC tumors; experiment: In vivo panning of T7 phage peptide library: phage recovered from irradiated LLC tumors; design: species or system mice; conditions: Experiment A, 3 Gy; for Phage Recovered from LLC tumors: number of sequenced phage after six rounds; for Phage Recovered from LLC tumors (Frequency): six rounds
Protocol: (§1) GL261 murine glioma cells and Lewis lung carcinoma (LLC) cells were implanted into the hind limb of C57BL/6 mice (see Hallahan et al., 1995b; Hallahan et al., 1998; Hallahan & Virudachalam, 1999).
(§2) For in vivo panning, tumors were irradiated with 3 Gy and approximately 10^10 phage (prepared as described in Example 1) were administered by tail vein injection into each of the tumor bearing mice at 4 hours following irradiation. Tumors were recovered at one hour following injection and amplified in BL21 bacteria. Amplified phage were pooled and re-administered to a tumor-bearing mouse following tumor irradiation. The phage pool was sequentially administered to a total of 6 animals. As a control, wild type phage lacking synthetic peptide inserts were identically administered to a second experimental group of animals.
(§3) To determine the titer of phage binding in a tumor or in normal tissue, recovered phage were amplified in BL21 bacteria. Bacteria were plated and the number of plaques present was counted. To determine the total phage output per organ, the number of plaque forming units (PFU) on each plate was divided by the volume of phage plated and the weight of each organ. Normal variation was observed as a 2-fold difference in PFU. In the present Example, background binding within tumor blood vessels was approximately 10^4 phage. Phage that bound to the vasculature within irradiated tumors show enrichment in the tumor relative to other organs and enrichment in the irradiated tumor relative to the control phage without DNA insert.
(§4) Following six rounds of in vivo panning, fifty recombinant phage peptides that bound within irradiated tumors were randomly selected for further analysis. The nucleic acid sequence encoding recombinant phage was amplified by PCR using primers set forth as SEQ ID NOs: 20-21 (available from Novagen Brand, a unit of EMD Biosciences, Inc., Madison, Wis.). An individual phage suspension was used as template. Amplified peptides were sequenced using an ABI PRISM® 377 sequencer (Applied Biosystems of Foster City, Calif., United States of America).

[3] = test system: GL261 tumors; experiment: In vivo panning of T7 phage peptide library: phage recovered from irradiated GL261 tumors; design: species or system mice; conditions: Experiment A, 3 Gy; for Phage Recovered from GL261 tumors: number of sequenced phage after six rounds; for Phage Recovered from GL261 tumors (Frequency): six rounds
Protocol: as §1, §2, §3, §4

[4] = test system: B16F0 melanoma, lung carcinoma and glioma tumor models; experiment: Binding of phage-encoded peptides in additional tumor models; type: in vivo; conditions: phage encoding the peptide
Source text: The binding properties of phage encoding HVGGSSV (SEQ ID NO: 1), […] (SEQ ID NO: 2), […] (SEQ ID NO: 3), and SVGSRV (SEQ ID NO: 4) were additionally characterized in a B16F0 melanoma model.

[5] = test system: GL261 tumors; experiment: TUNEL stain of intracranial GL261 glioblastoma tumors; type: in vivo, C57BL/6 mice
Protocol: The response of cancer cells within the intracranial glioblastoma tumor model, GL261, was also tested in mice. GL261 tumors were implanted into the brains of C57BL/6 mice. After tumor formation (seven days later), mice were treated with GLEEVEC®, 4 Gy or both GLEEVEC® and 4 Gy. Tumors were sectioned and assayed with TUNEL stain to identify apoptotic nuclei. […] The pharmacodynamic response (such as apoptosis) in tumors treated with GLEEVEC® correlated with tumor growth delay.

[6] = target: T1, GP-IIb/IIIa receptors on activated platelets (Homo sapiens, UniProt P05106+P08514); experiment: Clinical gamma camera/SPECT imaging of 99mTc-labeled bibapcitide in irradiated tumors; type: in vivo, patients
T1 construct: from tissue
Protocol: Ligand Preparation and Administration. Bibapcitide (ACUTECT™, available from Diatide, Inc. of Londonderry, N.H., United States of America) is a synthetic peptide that binds to GP-IIb/IIIa receptors on activated platelets (Hawiger et al., 1989; Hawiger & Timmons, 1992). Bibapcitide was labeled with ^99mTc in accordance with a protocol provided by Diatide Inc.
Reconstituted ^99mTc-labeled bibapcitide was administered to patients at a dose of 100 μg of bibapcitide radiolabeled with 10 mCi of ^99mTc. […] Patients underwent gamma camera imaging prior to irradiation and 24 hours following irradiation.
Following planar image acquisition, those patients showing uptake in irradiated tumors underwent tomographic imaging using SPECT and repeat imaging at 24 hours. Patients showing no uptake on planer images during this 24-hour time frame had no further imaging.
Patients were treated with X-irradiation ranging from 4 to 18 MV photon using external beam linear accelerator at Vanderbilt University. Appropriate blocks, wedges, and bolus to deliver adequate dose to the planned target volume was utilized. The site of irradiation, treatment intent, and normal tissue considerations determined the radiation dosage and volume. When stereotactic radiosurgery was used, the dose was prescribed to the tumor periphery.
Image Analysis. Image acquisition consisted of both planar and single photon emission computed tomography (SPECT) studies. Planar studies were performed on a dual-head gamma camera (Millennium VG-Variable Geometry model available from General Electric Medical Systems of Milwaukee, Wis., United States of America) equipped with low energy high-resolution (LEUR) collimators. This type of collimator represents a compromise between sensitivity (photon counting efficiency) and image resolution. Planar nuclear medicine images were acquired with a 256×256 acquisition matrix (pixel size approximately 0.178 cm/pixel) for 10 minutes. In order to maximize collimator-gamma camera system sensitivity the source-to-detector surface distance was minimized to the extent that patient geometry allows. The spatial distribution of […] within the planar image was measured using region-of-interest (ROI) analysis. Two different size ROIs (5×5 pixel, and 15×15 pixel) was used in both the tumor and surrounding organs and tissues in the patient. The rationale for using ROIs with different dimensions is to be able to quantify image counts while at the same time isolating any possible influence of ROI size on the results. Tumor-to-background ratios were computed as the ratio of average counts in the tumor region divided by average counts in surrounding organs and tissues, each corrected for background. Background counts was determined based on ROI analysis of a separate planar acquisition performed in the absence of a radioactive source.
Three-dimensional nuclear medicine SPECT examinations were performed using the same dual-head gamma camera system. Each SPECT study comprised a 360 scan acquired with a step-and-shoot approach utilizing the following acquisition parameters: three increments between views, a 256×256×64 acquisition matrix, LEUR collimation and 60 seconds per view. […] SPECT tumor-to-background ratios were computed using quantitative ROI techniques identical to the planar studies. […]

[7] = test system: LLC and GL261 tumors; experiment: Conserved motifs within phage peptides recovered by in vivo panning from both tumor models; design: species or system mice; conditions: share of phage peptides recovered from irradiated tumors that contain the sequence
Protocol: as §2, §4
The amino acid sequences of all phage that were recovered from both tumors were studied in order to identify homologous sequences (Table 2). The most commonly recovered phage peptide had amino acid sequence HVGGSSV (SEQ ID NO: 1), and the second most common sequence was […] (SEQ ID NO: 2). The probability of recovering these peptide sequences from both tumor subtypes is 625/10^14 for each of the peptide sequences. The peptide sequence GSSV (SEQ ID NO: 9) was present in 58% of the phage recovered from tumors. Homology between peptides recovered from LLC and GL261 included 100% homology in […] (SEQ ID NO: 2) and 70% homology in RGSGSRV (SEQ ID NO.: 12). Of interest is a 6 amino acid homology spanning over 8 amino acids that include amino acids SXRGXGS (SEQ ID NO: 13), which was recovered from 28% of all phage in 2 tumor models (p<0.0001). The probability of having six identical amino acids by chance is 6^−24.

[8] = test system: responding tumor blood vessels; experiment: Biotinylated peptide binding in tumor blood vessels, FITC-avidin fluorescent microscopy; type: in vivo, mice
Protocol: The amino acid sequence RGXGSXV (SEQ ID NO: 18) was found in 41% of phage recovered from treated LLC tumors. To determine the pattern of RGDGSSV (SEQ ID NO: 10) peptide binding within responding tumor blood vessels, biotinylated peptide was administered by tail vein injection. Tumors were implanted into both hind limbs of mice. The right tumor was irradiated according to Example 2, and the left served as an untreated internal negative control. Biotinylated peptide was administered by tail vein injection immediately prior to tumor irradiation.

T1 sequence (P08514 32-887 limits assumed): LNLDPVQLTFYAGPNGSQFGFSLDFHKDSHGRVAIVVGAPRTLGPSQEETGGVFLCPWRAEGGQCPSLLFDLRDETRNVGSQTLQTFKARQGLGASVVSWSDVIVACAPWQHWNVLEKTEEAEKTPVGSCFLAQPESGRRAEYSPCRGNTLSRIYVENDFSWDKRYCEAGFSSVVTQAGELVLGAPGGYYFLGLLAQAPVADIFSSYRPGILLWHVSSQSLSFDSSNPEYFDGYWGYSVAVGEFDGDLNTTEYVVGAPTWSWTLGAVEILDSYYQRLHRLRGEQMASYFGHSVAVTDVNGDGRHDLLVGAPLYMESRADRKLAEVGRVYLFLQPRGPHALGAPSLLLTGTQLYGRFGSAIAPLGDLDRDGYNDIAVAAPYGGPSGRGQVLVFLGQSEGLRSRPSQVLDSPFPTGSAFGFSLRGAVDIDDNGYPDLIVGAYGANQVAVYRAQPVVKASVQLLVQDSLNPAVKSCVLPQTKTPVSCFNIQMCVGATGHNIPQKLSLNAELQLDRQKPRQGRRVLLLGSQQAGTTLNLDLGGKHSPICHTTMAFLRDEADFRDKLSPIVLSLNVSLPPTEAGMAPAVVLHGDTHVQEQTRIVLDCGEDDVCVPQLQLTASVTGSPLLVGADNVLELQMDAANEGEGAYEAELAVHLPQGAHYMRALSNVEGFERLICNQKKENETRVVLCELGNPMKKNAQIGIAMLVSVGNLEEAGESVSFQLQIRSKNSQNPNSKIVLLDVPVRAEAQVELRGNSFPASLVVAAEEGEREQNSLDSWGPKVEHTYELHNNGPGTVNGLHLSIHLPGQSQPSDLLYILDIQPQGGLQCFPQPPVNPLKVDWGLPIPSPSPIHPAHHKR
T1 sequence (P08514 891-1039 partner limits assumed): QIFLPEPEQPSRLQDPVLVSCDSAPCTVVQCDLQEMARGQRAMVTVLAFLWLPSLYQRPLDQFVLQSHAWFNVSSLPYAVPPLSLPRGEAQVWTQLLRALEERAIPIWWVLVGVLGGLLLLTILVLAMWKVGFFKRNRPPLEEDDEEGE
T1 sequence (P05106 27-788): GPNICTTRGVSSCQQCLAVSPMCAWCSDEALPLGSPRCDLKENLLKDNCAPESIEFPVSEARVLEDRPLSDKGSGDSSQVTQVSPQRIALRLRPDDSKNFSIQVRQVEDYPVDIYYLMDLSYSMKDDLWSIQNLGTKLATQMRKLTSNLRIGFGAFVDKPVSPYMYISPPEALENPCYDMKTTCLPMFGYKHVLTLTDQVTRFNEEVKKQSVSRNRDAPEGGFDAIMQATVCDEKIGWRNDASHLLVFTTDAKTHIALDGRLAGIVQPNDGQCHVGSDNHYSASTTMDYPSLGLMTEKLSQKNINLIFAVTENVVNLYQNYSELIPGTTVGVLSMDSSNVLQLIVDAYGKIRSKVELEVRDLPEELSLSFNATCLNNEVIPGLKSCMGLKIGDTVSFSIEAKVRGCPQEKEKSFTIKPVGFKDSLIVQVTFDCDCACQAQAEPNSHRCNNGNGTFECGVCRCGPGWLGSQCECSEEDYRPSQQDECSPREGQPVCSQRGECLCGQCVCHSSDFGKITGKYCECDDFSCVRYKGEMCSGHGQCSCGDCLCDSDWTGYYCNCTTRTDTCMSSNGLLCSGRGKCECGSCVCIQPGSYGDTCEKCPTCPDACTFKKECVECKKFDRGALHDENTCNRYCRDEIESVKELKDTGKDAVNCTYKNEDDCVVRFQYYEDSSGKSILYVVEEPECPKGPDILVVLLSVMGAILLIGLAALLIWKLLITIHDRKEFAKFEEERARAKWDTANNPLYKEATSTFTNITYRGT

For `Cc1[nH]c(/C=C2\C(=O)Nc3ccccc32)c(C)c1CCC(=O)O` [SU6668], the “Apoptosis within tumor vascular endothelium” value [1] is listed as “induced apoptosis within tumor vascular endothelium”.
In the case of “SVGSRV (Peptide that binds to LLC and/or GL261 tumors) [peptide isolated by in vivo panning of a phage library]”, the “Phage Recovered from LLC tumors” value [2] is reported as 1, the “Phage Recovered from LLC tumors (Frequency)” value [2] is reported as “(4%)” and the “Phage Recovered from GL261 tumors” value [3] is reported as 3. The “Phage Recovered from GL261 tumors (Frequency)” value [3] was “(12%)” and the “Tumor models within which the phage-encoded peptide bound” value [4] was “bound within lung carcinoma and glioma”.
For `Cc1ccc(NC(=O)c2ccc(CN3CCN(C)CC3)cc2)cc1Nc1nccc(-c2cccnc2)n1` [GLEEVEC®], the “Glioma nuclei stained positive with TUNEL stain” value ([5]; TKI alone) was 5% and the “Apoptotic nuclei (TUNEL)” value ([5]; TKI followed by irradiation (4 Gy)) was 18%.
For `Cc1cc(C)c(/C=C2\C(=O)Nc3ccccc32)[nH]1` [SU5416], the “Apoptosis within tumor vascular endothelium” value [1] is given as “induced apoptosis within tumor vascular endothelium”.
For “Bibapcitide [^99mTc-labeled bibapcitide]”, the Tumor binding ([6]; administered immediately prior to radiation, 10 Gy or more) was 4 of 4, the Localization to tumor ([6]; administered within one hour following radiation) was “failed to show localization” and the Specificity of binding ([6]; clinical study, general finding) was “non-specific binding”. The “Binding to responding tumors in dose de-escalation study” value ([6]; radiation dose reduced to 5 Gy) was “not sufficient” and the “Binding in second neoplasms not treated with radiation” value ([6]; two patients, non-responding tumors) was “not observed”.
For “RGDGSSV (also: biotin, site not given here) [tested as biotinylated peptide]”, the “Frequency of Recovery of conserved sequence” value [7] was 28%, the “Peptide binding in irradiated (responding) tumor” value ([8]; biotinylated peptide by tail vein immediately prior to irradiation, right tumor irradiated) was “accumulation throughout the lumen of responding tumors” and the “Peptide binding in untreated control tumor” value ([8]; biotinylated peptide by tail vein, left tumor untreated internal control) was “near absence of binding”.
In the case of “SVRGSGSGV (Peptide that binds to LLC and/or GL261 tumors) [peptide isolated by in vivo panning of a phage library]”, the “Phage Recovered from LLC tumors” value [2] is reported as 7, the “Phage Recovered from LLC tumors (Frequency)” value [2] is reported as “(28%)” and the “Phage Recovered from GL261 tumors” value [3] is reported as 0. The “Phage Recovered from GL261 tumors (Frequency)” value [3] was “(0%)” and the “Tumor models within which the phage-encoded peptide bound” value [4] was “bound within glioma and melanoma”.
